Patent US8088570B2, “Method for screening an agent for preventing or ameliorating wrinkles” (Kao Corporation, priority 2006, dated 2012)

Assays:
[1] = tested on: chronically ultraviolet-irradiated mice (wrinkle formation model); assay: Wrinkle-improving effect of CLP, visual observation score in chronically ultraviolet-irradiated hairless mice (Reference Example 1); format: in vivo, hairless mice (Hr-1-ICR); conditions: 5 w/v % CLP, 100 μL on dorsal skin for 6 weeks after 12 weeks of UV irradiation
Text: An experimental system of the chronic and continuous exposure of hairless mice to ultraviolet rays of minimum erythema dose (hereinafter, referred to as 1 MED) or lower (J. Pharm. Pharmacol. 1992; 44: 379-386; and Photochem. Photobiol., 1991; 53: 109-112) was used as a wrinkle formation model to perform a test of wrinkle improvement of 1-carbamimidoyl-L-proline (CLP) in vivo.
The mice used were hairless mice (Hr-1-ICR) produced from crossing between Hr-1 (Skh-1) hairless mice and ICR mice. Toshiba SE20 lamps were used as an ultraviolet source, and ultraviolet doses used were measured with UV-RADIOMETER (UVR-305/365D, Eisai). The 6- to 10-week-old hairless mice were exposed once a day and five times a week for 12 consecutive weeks to ultraviolet rays of 1 MED or lower, that is, at a dose of 470 J/m^2 during the 0th (at the start of irradiation) to first week, at a dose of 530 J/m^2 during the first to second week, at a dose of 600 J/m^2 during the second to third week, and at a dose of 670 J/m^2 during the fourth and subsequent weeks, to prepare chronically ultraviolet-irradiated mice. […]
The degree of wrinkles formed on the dorsal skins of the mice was determined at the start of CLP application and on the 6th week according to a visual observation score with reference to the documents described above. The score was evaluated on a scale of 7 using the scores below and mean values. […]

K6 protein [2] = assay: Epidermal K6 protein level by western blotting in wrinkle model mice (Example 1); format: in vivo, hairless mice; conditions: 5 w/v % CLP applied 6 weeks after 9 weeks of UV irradiation; compared with solvent control and unirradiated mice
Description: (§1) Six-week-old hairless mice of the same species as in Reference Example 1 were exposed for 9 consecutive weeks to ultraviolet rays at a dose of 470 J/m^2 during the 0th (at the start of irradiation) to first week, at a dose of 530 J/m^2 during the first to second week, at a dose of 600 J/m^2 during the second to third week, and at a dose of 670 J/m^2 during the fourth and subsequent weeks, to prepare chronically ultraviolet-irradiated mice (wrinkle model mice). Then, 100 μL of 5 w/v % CLP solution (50 vol % ethanol solution) was applied once […] and five times a week for 6 consecutive weeks to the whole dorsal skin of each of the mice to examine changes in epidermal keratin protein levels. For controls, 50 vol % ethanol solution (solvent control) and unirradiated age-matched mice (unirradiated mice) were used. Each of the groups comprised 3 mice.
(§2) After the dorsal skins collected from the mice were cooled on ice immediately after treatment in distilled water at 60° C. for 1 minute, epidermal portions were separated from the dermis with a spatula. […] Labeling was performed by using peroxidase-labeled secondary antibodies, and color was developed by chemiluminescence method (ECL-Plus, Amersham Pharmacia Biotech) and detected with X-ray films. Quantification was performed with Adobe Photoshop (Adobe Systems Incorporated).

K16 protein [3] = assay: Epidermal K16 protein level by western blotting in wrinkle model mice (Example 1); format: in vivo, hairless mice; conditions: 5 w/v % CLP applied 6 weeks after 9 weeks of UV irradiation; compared with solvent control and unirradiated mice
Description: as §1, §2

K1 protein [4] = assay: Epidermal K1 protein level by western blotting in wrinkle model mice (Example 1); format: in vivo, hairless mice; conditions: 5 w/v % CLP applied 6 weeks after 9 weeks of UV irradiation
Description: as §1, §2

K10 protein [5] = assay: Epidermal K10 protein level by western blotting in wrinkle model mice (Example 1); format: in vivo, hairless mice; conditions: 5 w/v % CLP applied 6 weeks after 9 weeks of UV irradiation
Description: as §1, §2

K14 protein [6] = assay: Epidermal K14 protein level by western blotting in wrinkle model mice (Example 1); format: in vivo, hairless mice; conditions: 5 w/v % CLP applied 6 weeks after 9 weeks of UV irradiation
Description: as §1, §2

K5 protein [7] = assay: Epidermal K5 protein level by western blotting in wrinkle model mice (Example 1); format: in vivo, hairless mice; conditions: 5 w/v % CLP applied 6 weeks after 9 weeks of UV irradiation
Description: as §1, §2

[8] = tested on: hairless mice exposed to ultraviolet rays (wrinkle formation); assay: Inhibitory effect of CLP on wrinkle formation, visual observation score (Example 2); format: in vivo; conditions: 4% (Wt/Vol %) CLP, 100 μL applied immediately after each UV irradiation, 12 weeks
Description: The degree of wrinkles formed on the dorsal skins of the mice was determined at the start of CLP application and on the 6th week according to a visual observation score with reference to the documents described above. The score was evaluated on a scale of 7 using the scores below and mean values.
Score 0: no wrinkle observed
Score 1: wrinkles slightly observed
Score 2: wrinkles observed
Score 3: wrinkles remarkably observed
The same 6- to 8-week-old hairless mice as in Reference Example 1 were used and exposed to ultraviolet rays of 1 MED (minimum erythema dose) or lower. Immediately after the ultraviolet irradiation, procedures for applying 100 μL of 4% (Wt/Vol %) CLP solution (solvent: 30 Vol/Vol % ethanol/water solution) or vehicle control to the whole dorsal skin of each of the mice were performed once a day and five times a week for 12 consecutive weeks. The irradiation dose was 470 J/m^2 during the 0th (at the start of irradiation) to first week, 530 J/m^2 during the first to second week, 600 J/m^2 during the second to third week, and 670 J/m^2 during the fourth and subsequent weeks. Each of the groups comprised 10 to 12 mice.
The degree of wrinkles formed on the dorsal skins of the mice was determined after 12 weeks from the start of ultraviolet irradiation according to the visual observation score in the same way as in Reference Example 1.

K6 protein [9] = assay: Epidermal K6 protein level by western blotting, wrinkle formation test (Example 2); format: in vivo, hairless mice; conditions: 4% CLP applied with UV irradiation, 12 weeks
Description: (§3) After the dorsal skins collected from the mice were cooled on ice immediately after treatment in distilled water at 60° C. for 1 minute, epidermal portions were separated from the dermis with a spatula. The obtained epidermal portions (containing the stratum corneum) were homogenized in a urea buffer (8 M urea, 50 mM tris-HCl (pH 7.6), 100 mM mercaptoethanol, 1 mM dithiothreitol, and protease inhibitors) to extract proteins. Insoluble matter was removed by centrifugation and supernatant collection. Following the measurement of the total protein concentration (RD DC Protein Assay Kit, Bio-Rad Laboratories Inc.), samples were prepared at the same concentrations. The samples were supplemented with laemmli buffer and treated at 90 to 100° C. for 3 to 5 minutes to give samples for electrophoresis. The samples were electrophoresed on 5 to 15% gradient acrylamide gel or 12.5% acrylamide gel (Bio Rad) at 60 V for 3 hours and blotted onto a nitrocellulose membrane at 250 mA for 1 hour under ice cooling. […] Labeling was performed by using peroxidase-labeled secondary antibodies, and color was developed by chemiluminescence method (ECL-Plus, Amersham Pharmacia Biotech) and detected with X-ray films. Quantification was performed with Adobe Photoshop (Adobe Systems Incorporated). […]
(§4) Moreover, the quantification of keratin proteins was performed by western blotting in the same way as in Example 1.

K16 protein [10] = assay: Epidermal K16 protein level by western blotting, wrinkle formation test (Example 2); format: in vivo, hairless mice; conditions: 4% CLP applied with UV irradiation, 12 weeks
Description: as §3, §4

K1 protein [11] = assay: Epidermal K1 protein level by western blotting, wrinkle formation test (Example 2); format: in vivo, hairless mice; conditions: 4% CLP applied with UV irradiation, 12 weeks
Description: as §3, §4

K10 protein [12] = assay: Epidermal K10 protein level by western blotting, wrinkle formation test (Example 2); format: in vivo, hairless mice; conditions: 4% CLP applied with UV irradiation, 12 weeks
Description: as §3, §4

K5 protein [13] = assay: Epidermal K5 protein level by western blotting, wrinkle formation test (Example 2); format: in vivo, hairless mice; conditions: 4% CLP applied with UV irradiation, 12 weeks
Description: as §3, §4

K14 protein [14] = assay: Epidermal K14 protein level by western blotting, wrinkle formation test (Example 2); format: in vivo, hairless mice; conditions: 4% CLP applied with UV irradiation, 12 weeks
Description: as §3, §4

N=C(N)N1CCC[C@H]1C(=O)O [CLP, 1-carbamimidoyl-L-proline]
visual observation score of wrinkles, 6th week compared with at the start [1]: significantly decreased | visual observation score of wrinkles, compared with control group on the 6th week ([1]; control 30 vol % ethanol): significantly lower | epidermal K6 protein level (K6 protein [2]): decreased to unirradiated levels | epidermal K16 protein level (K16 protein [3]): decreased to unirradiated levels | epidermal K1 protein level (K1 protein [4]): No significant difference | epidermal K10 protein level (K10 protein [5]): No significant difference | epidermal K14 protein level (K14 protein [6]): No significant difference | epidermal K5 protein level (K5 protein [7]): hardly changed | wrinkle formation (visual observation score) compared with vehicle control group [8]: significant inhibitory effect | K6 protein level compared with vehicle control group (K6 protein [9]): significantly decreased | K16 protein level compared with vehicle control group (K16 protein [10]): significantly decreased | K1 protein level compared with vehicle control group (K1 protein [11]): no significant difference | K10 protein level compared with vehicle control group (K10 protein [12]): no significant difference | K5 protein level compared with vehicle control group (K5 protein [13]): no significant difference | K14 protein level compared with vehicle control group (K14 protein [14]): no significant difference
